Experimental data reported in PubChem BioAssay AID463203 (Broad Institute, 2010).
The source made the active and inactive calls.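 The calls were made as follows: active = more than half of replicate measurements showing over 20% loss of kinase signal relative to plate controls; inconclusive = some but at most half of replicates over 20% loss; inactive = no replicate over 20% signal loss.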

Biological target: Glycogen synthase kinase-3 alpha (Homo sapiens) (UniProt P49840)
Test: concentration-response blocking of human GSK3A – biochemical, luminescence, cell-free homogeneous, retest, dose response (AID 463203)
Conditions: GSK-3 alpha enzyme, ADP-Glo luminescence, 60 min

Glycogen synthase kinase-3 alpha (Homo sapiens), sequence (P49840 whole entry, looked up): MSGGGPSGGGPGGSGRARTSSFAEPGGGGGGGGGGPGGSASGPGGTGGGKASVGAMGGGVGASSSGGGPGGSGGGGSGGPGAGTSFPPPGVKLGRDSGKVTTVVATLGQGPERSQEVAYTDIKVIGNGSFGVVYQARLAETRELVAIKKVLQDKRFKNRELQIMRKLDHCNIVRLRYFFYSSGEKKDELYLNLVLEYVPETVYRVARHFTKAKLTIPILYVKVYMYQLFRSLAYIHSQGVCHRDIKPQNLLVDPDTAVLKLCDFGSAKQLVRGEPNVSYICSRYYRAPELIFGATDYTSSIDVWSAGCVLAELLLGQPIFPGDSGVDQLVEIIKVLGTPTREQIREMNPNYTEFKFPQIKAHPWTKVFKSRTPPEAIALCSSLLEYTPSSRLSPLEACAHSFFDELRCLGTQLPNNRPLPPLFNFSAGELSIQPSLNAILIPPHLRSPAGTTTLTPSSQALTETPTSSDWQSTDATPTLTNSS

Compound	AC50
N#CC1=C2SCN(c3ccccc3)CN2C(=O)CC1c1c(Cl)cccc1Cl (stereo not drawn)	> 30 µM (inactive)
COc1ccc(NC(=O)c2ccc(NCCCN3CCOCC3)c([N+](=O)[O-])c2)cc1	> 30 µM (inactive)
N#CCC(=O)Nc1sc2c(c1C(N)=O)CCCC2	20.2 µM
CC(=O)N1CCN(c2ccccc2NC(=O)c2ccc(Br)o2)CC1	10.3 µM
CCOC(=O)c1cnc2cc(F)c(F)cc2c1N1CCN(C)CC1	> 30 µM (inactive)
Cc1ccc(CSc2nnc(-c3cccnc3)o2)cc1	> 30 µM (inactive)
CCOC(=O)C1CCN(c2c(C(=O)c3ccccc3)cnc3ccc(Cl)cc23)CC1	> 30 µM (inactive)
N#Cc1cnn2c3c(cnc12)C(=O)N1CCc2ccccc2C1C3 (stereo not drawn)	> 30 µM (inactive)
O=C(Nc1nc2c(s1)CCCC2)c1ccc(Br)o1	> 30 µM (inactive)
CCOC(=O)c1cc(C)sc1NC(=O)CCC(=O)O	> 30 µM (inactive)
CCOC(=O)c1nc(NCc2cccc(OC)c2)c2ccccc2n1	> 30 µM (inactive)
CC(=O)Nc1c(C)ccc2nsnc12	> 30 µM (inactive)
COc1ccc(Cl)cc1C(=O)Nc1ccc(NC(=O)c2ccco2)cc1	> 30 µM (inactive)
O=C1OCCC/C1=C\c1ccc2c(c1)OCO2	23.3 µM
CCOc1cc(C(c2c(C)[nH][nH]c2=O)c2c(C)[nH][nH]c2=O)ccc1O	> 30 µM (inactive)
C#CCOCCOCCOCCNc1nc(N2CCN(C(=O)CCCCCCCCCCNC(=O)[C@H](CCCCN)n3cc(C)nn3)CC2)nc(N2CCN(C(=O)CCCCCCCCCCNC(=O)[C@@H]([C@H](C)CC)n3cc(CCCCCN)nn3)CC2)n1	> 30 µM (inactive)
CCC(=NCCO)c1c(O)n(C2CCCCC2)c(=O)[nH]c1=O	19.4 µM
O=C(CSc1nnc(-c2ccc(O)cc2)o1)Nc1cccc(O)c1	21.6 µM
CCOC(=O)c1nc(NCc2cccnc2)c2ccccc2n1	> 30 µM (inactive)
O=C1CCCN1CCCNc1ncccc1[N+](=O)[O-]	> 30 µM (inactive)
Brc1ccc(-c2nnc3ccc(Nc4ccccc4)nn23)cc1	> 30 µM (inactive)
COC(=O)c1ccc(CSc2n[nH]c(=S)s2)o1	> 30 µM (inactive)
Cc1cccc(-n2ncc(C#N)c2-n2cccc2)c1	> 30 µM (inactive)
COc1ccc(CC(=O)Nc2ccc(-c3cn4ccccc4n3)cc2)cc1OC	> 30 µM (inactive)
NNC(=O)/C(=N/Nc1ccccc1)S(=O)(=O)c1ccc(Cl)cc1	> 30 µM (inactive)
Oc1ccc(-c2nc3ncccn3c2Nc2ccc3c(c2)OCCO3)cc1	> 30 µM (inactive)

Compound	AC50
O=C1Nc2ccccc2Sc2ccccc21	> 30 µM (inactive)
COc1cccc(NC(=O)Nc2cc(Cl)ccc2C)c1	> 30 µM (inactive)
CCc1c(C)c(C#N)c2nc3ccccc3n2c1NCC1CCCO1 (stereo not drawn)	12.6 µM
Nc1nonc1-n1nnc(C(=O)N/N=C/c2cccc(Cl)c2)c1-c1cccs1	0.614 µM
CC1(C)Cc2cccc(C(=O)Nc3ccncc3)c2O1	5.8 µM
Cc1ccc2nc3c(cc2c1)c(NS(=O)(=O)c1ccccc1)nn3CC(C)C	> 30 µM (inactive)
CC(C)c1ccc(/C=N/NC(=O)c2nnn(-c3nonc3N)c2CN(C)C2CCCCC2)cc1	> 30 µM (inactive)
O=C(CSCc1ccc([N+](=O)[O-])cc1)N/N=C/c1cccnc1	> 30 µM (inactive)
O=C(NC1(C(F)(F)F)NC(=O)N(Cc2cccnc2)C1=O)c1ccccc1 (stereo not drawn)	> 30 µM (inactive)
N#CC1=C(S)N(c2ccccc2)C(c2ccco2)NC1=O (stereo not drawn)	> 30 µM (inactive)
COc1c(-c2ccc(O)c(O)c2)oc2cc(O)cc(O)c2c1=O	1.93 µM
COc1ccc(CCNC(=O)c2nnn(-c3ccccc3OC)c2N)cc1OC	14.8 µM
O=C(CSc1nc2[nH]ncc2c(=O)n1-c1ccccc1)NCCc1ccccc1	8.62 µM
CCN(CC)c1ccc(C2C(C(=O)OC(C)C)C(=O)CC(C)(O)C2C(=O)OC(C)C)cc1 (stereo not drawn)	> 30 µM (inactive)
O=c1c(OC2OC(CO)C(O)C(O)C2O)c(-c2ccc(O)c(O)c2)oc2cc(O)cc(O)c12 (stereo not drawn)	> 30 µM (inactive)
Cn1nnnc1SCC(=O)Nc1nn(-c2ccccc2)nc1C(N)=O	24.2 µM
Cc1ccc(C2C3=C(CCCC3=O)Nc3c2c(C)nn3-c2ccccn2)o1 (stereo not drawn)	> 30 µM (inactive)
COc1ccc(CCNC2=C(Cl)C(=O)N(Cc3ccccc3)C2=O)cc1OC	> 30 µM (inactive)
CCN(C(=O)CN1CC=C(c2ccccc2)CC1)c1c(N)n(Cc2ccccc2)c(=O)[nH]c1=O	> 30 µM (inactive)
COc1cccc(-n2c(SCC(=O)NC3CCCC3)nnc2-c2ccco2)c1	> 30 µM (inactive)
CCOc1ccc2ncc(S(=O)(=O)c3ccccc3)c(N3CCN(c4ccccc4)CC3)c2c1	> 30 µM (inactive)
COc1ccccc1NC(=O)CSc1ccc2nnc(-c3ccc(C)cc3)n2n1	19.2 µM
COc1ccc(NC(=O)Nc2ccc(F)cc2F)c(C)c1	> 30 µM (inactive)
Cc1c(CCC(=O)O)c(=O)oc2cc(O)ccc12	> 30 µM (inactive)
Cc1cc(=O)[nH]c2ccccc12	> 30 µM (inactive)
O=C(CSCCc1ccccn1)Nc1ccccn1	> 30 µM (inactive)

Compound	AC50
O=C(Nc1ncc([N+](=O)[O-])s1)c1ccc2c(c1)OCO2	> 30 µM (inactive)
CCOc1cc(/C=C2\N=C3CCCCCN3C2=O)ccc1O	19.3 µM
Brc1ccccc1C1=Nn2c(nnc2-c2ccco2)SC1	17.5 µM
NC1=NC(=O)/C(=C/c2ccc(-c3ccc(S(N)(=O)=O)cc3)o2)S1	0.397 µM
Cc1oc2ccc(O)cc2c1C(=O)c1ccc(F)cc1	> 30 µM (inactive)
Cc1cccc2cc(C#N)c(NCCNC(=S)NCCCN3CCOCC3)nc12	> 30 µM (inactive)
COc1ccc(-c2nc(N)ncc2-c2ccccc2)c(O)c1	15.5 µM
COc1ccc(-n2c(C)nc(N)c2C(=O)c2ccccc2)cc1	> 30 µM (inactive)
COC(=O)[C@@H](NC(=O)NCc1ccccc1F)C(C)C	> 30 µM (inactive)
N#Cc1c(-c2ccc(F)cc2)c2c([nH]c1=O)-c1ccccc1OC2	> 30 µM (inactive)
CCOc1cccc(-c2c(C(=O)N/N=C/c3ccncc3)nnn2-c2nonc2N)c1	2.13 µM
O=C(CN(Cc1ccco1)C(=O)CCC(=O)Nc1ccccn1)NCc1ccccc1	> 30 µM (inactive)
COC(=O)c1c(NC(=O)CN2C(=O)NC3(CCC(C(C)(C)C)CC3)C2=O)sc2c1CCCCC2 (stereo not drawn)	> 30 µM (inactive)
COc1cc2c(ccc3cc(OC)c(OC)c(O)c32)cc1O	20.8 µM
CCc1nnc(NC(=O)c2cccc(S(=O)(=O)N3CC(c4ccccc4)CC3=O)c2)s1 (stereo not drawn)	> 30 µM (inactive)
CCOC(=O)c1cc(C(=O)OCC)c2cc(Br)ccc2n1	> 30 µM (inactive)
Cc1ccc(NC(=O)CSCc2ccco2)cc1	> 30 µM (inactive)
Nc1nc(N)nc(-c2cc(O)ccc2O)n1	11.8 µM
CSc1ccc(C2C3(C#N)C(N)=NC4(OCCO4)C23C#N)cc1 (stereo not drawn)	> 30 µM (inactive)
CC(=O)C1C(c2ccc(C)cc2)c2c(n[nH]c2C)CC1(C)O (stereo not drawn)	> 30 µM (inactive)
COc1cc(/C(C)=N/NC(=O)c2nnn(-c3nonc3N)c2-c2cccs2)ccc1O	1.95 µM
CC(C)=CCc1cc(-c2oc3cc(O)cc(O)c3c(=O)c2O)ccc1O	9.4 µM
N#CCCn1cc(/C=N/O)c(-c2ccccc2)n1	> 30 µM (inactive)
Clc1ccccc1C1=Nn2c(nnc2-c2ccncc2)SC1	2.35 µM
CN(C)/N=C/c1cn(-c2ccccc2)nc1-c1cccnc1	> 30 µM (inactive)
C[C@@H]1O[C@@H](Oc2c(-c3ccc(O)c(O)c3)oc3cc(O)cc(O)c3c2=O)[C@H](O)[C@H](O)[C@H]1O	29.8 µM

Compound	AC50
CN(C)C(=O)Oc1ccc(OC(=O)N(C)C)cc1	> 30 µM (inactive)
CCOc1ccc(-n2c(O)c(C=NCCCn3ccnc3)c(=O)[nH]c2=O)cc1	22.4 µM
CC(C)(C)C(=O)/C=c1\[nH]c(=O)/c(=C\c2ccc(F)cc2)s1	11.9 µM
CC(C(=O)Nc1nccs1)c1ccc([N+](=O)[O-])cc1 (stereo not drawn)	20.5 µM
Cc1cccc(OCC(=O)NNC(=O)c2cc3ccccc3oc2=O)c1	> 30 µM (inactive)
Cc1ccsc1C1C2=C(CC(C)(C)CC2=O)Nc2ncnn21 (stereo not drawn)	11.3 µM
COc1ccc2cc(C(=O)NCc3ccco3)c(=O)oc2c1	> 30 µM (inactive)
CC(C)Cn1nc(NC(=O)C2CCCO2)c2cc3ccccc3nc21 (stereo not drawn)	> 30 µM (inactive)
CC(C)c1nnc(NC(=O)CCN2C(=O)c3ccccc3C2=O)s1	> 30 µM (inactive)
O=c1[nH]c(=O)n(CCC2=CCCCC2)c(O)c1C=NCCCn1ccnc1	28.6 µM
O=C(CSc1ccc(F)cc1)Nc1ccc2c(c1)C(=O)NC2=O	12.5 µM
Cc1c(/C=N/Nc2ccc([N+](=O)[O-])cn2)c2ccccc2n1Cc1ccccc1	> 30 µM (inactive)
Cc1cnn(-c2cc(N/N=C/c3ccccc3)ncn2)c1	> 30 µM (inactive)
Nc1nonc1-n1nnc(C(=O)N/N=C/c2ccco2)c1-c1ccccc1	18.5 µM
NC(=O)c1cccc(S(=O)(=O)N2CC(c3ccccc3)CC2=O)c1 (stereo not drawn)	> 30 µM (inactive)
O=c1[nH]c(=O)n(C2CCCCCC2)c(O)c1C=NCCCN1CCOCC1	14.4 µM
Nc1ncc([N+](=O)[O-])s1	> 30 µM (inactive)
NS(=O)(=O)c1ccc(Nc2nc(-c3cccnc3)cs2)cc1	> 30 µM (inactive)
Cc1cc(NC(=O)CCSc2nc(-c3ccco3)cc(C(F)(F)F)n2)n(-c2ccccc2)n1	> 30 µM (inactive)
CCOC(=O)c1nn(-c2ccc(Cl)cc2)c2nc(Nc3ccccc3)cc(=O)n12	> 30 µM (inactive)
CC(C)CN(C(=O)CN1CC=C(c2ccccc2)CC1)c1c(N)n(CC(C)C)c(=O)[nH]c1=O	> 30 µM (inactive)
COc1ccc(-c2cc(C(=O)N3CCN(c4ccccc4OC)CC3)no2)cc1	> 30 µM (inactive)
Nc1n[nH]c2cc(=O)n(-c3ccc(Cl)cc3)nc12	18.9 µM
O=C(Nc1ccccc1)c1cc(-n2cnnc2)ccc1Cl	> 30 µM (inactive)
O=[N+]([O-])c1cc(S(=O)(=O)N2CCCCC2)ccc1NCCCN1CCOCC1	> 30 µM (inactive)
